From patent publication US4859611A (priority 1986, dated 1989)

Experiments:
[1] = system: IgM antibody affinity matrix; format: binding, mouse
many animal species = conditions: in vivo; cited from earlier work

COc1cc2c(c3oc(=O)c4c(c13)CCC4=O)[C@@H]1C=CO[C@@H]1O2 [AFB1, aflatoxin B1]
capacity of affinity matrix to bind AFB1 [1]: 1.0 to 1.3 µg
toxic, mutagenic and carcinogenic effect (many animal species): toxic, mutagenic and carcinogenic
